Values quoted from earlier work in patent US11045483B2, “Pain-killing composition comprising a salicylic acid derivative” (AB7 INNOVATION S.A.S.U, priority 2015, dated 2021).

Details: topical application of formulations; Sheree E. Cross et al., 1998

COC(=O)c1ccccc1O [methyl salicylate]
time that must elapse before detection in the circulatory system: around 60 minutes
